Data taken from patent US10117916B2, “Peptides and combination of peptides for use in immunotherapy against CLL and other cancers” (immatics biotechnologies GmbH, priority 2015, dated 2018).

Columns and labels:
[1] = molecular target: HLA-A*02:01 (Homo sapiens, UniProt P04439, D140Y/D185E/D98H/E176V/E277Q/G131W/G231S/I119V/I121R/I166T/I218V/L300P/L318F/N151K/N90K/P208A/P217A/Q86G/Q94H/R138H/R169H/T345S); assay: MHC binding assay: UV-ligand exchange with β2m ELISA (peptide exchange yield); details: MHC class I binding score; binding to HLA-A*02:01 ranged by peptide exchange yield (UV-ligand exchange, β2m ELISA)
Outline: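 UV-exchange pMHC monomers, 100-fold diluted → streptavidin capture 1 h 37 °C → HRP anti-β2m 2 ug/ml 1 h 37 °C → TMB, A450. Yield from HLA-A*02:01/MLA-001 monomer standard curve, 15-500 ng/ml. Only stably bound peptides keep β2m-containing complexes intact.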

[2] = tested on: CD8+ T cells; assay: In vitro immunogenicity: T-cell priming with aAPCs loaded with peptide/MHC and anti-CD28, pMHC multimer readout; format: cell-based, human; details: CD8+ T cells of healthy donors, three stimulation cycles; for Wells positive [%]: HLA-A*02 restricted peptides; for wells (in vitro immunogenicity, positive wells): HLA class I peptides
Description: In an aspect, the peptides are pre-screened for immunogenicity before being included in the warehouse. By way of example, and not limitation, the immunogenicity of the peptides included in the warehouse is determined by a method comprising in vitro T-cell priming through repeated stimulations of CD8+ T cells from healthy donors with artificial antigen presenting cells loaded with peptide/MHC complexes and anti-CD28 antibody.
CD8+ T cells were primed using artificial APCs coated with anti-CD28 mAb and HLA-A*02 in complex with SeqID No 1 peptide (FIG. 3C, left panel), SeqID No 5 peptide (FIG. 3D left panel), SeqID No 32 peptide (FIG. 3E, left panel) and SeqID No 220 peptide (FIG. 3F, left panel), respectively. After three cycles of stimulation, the detection of peptide-reactive cells was performed by 2D multimer staining with A*02/SeqID No 1 (FIG. 3C), A*02/SeqID No 5 (FIG. 3D), A*02/SeqID No 32 (FIG. 3E) or A*02/SeqID No 220 (FIG. 3F). Right panels (FIGS. 3C, 3D, 3E and 3F) show control staining of cells stimulated with irrelevant A*02/peptide complexes. Viable singlet cells were gated for CD8+ lymphocytes. Boolean gates helped excluding false-positive events detected with multimers specific for different peptides.
In order to obtain information regarding the immunogenicity of the TUMAPs of the present invention, the inventors performed investigations using an in vitro T-cell priming assay based on repeated stimulations of CD8+ T cells with artificial antigen presenting cells (aAPCs) loaded with peptide/MHC complexes and anti-CD28 antibody.
In order to perform in vitro stimulations by artificial antigen presenting cells loaded with peptide-MHC complex (pMHC) and anti-CD28 antibody, the inventors first isolated CD8+ T cells from fresh HLA-A*02 leukapheresis products via positive selection using CD8 microbeads (Miltenyi Biotec, Bergisch-Gladbach, Germany) of healthy donors obtained from the University clinics Mannheim, Germany, after informed consent.
PBMCs and isolated CD8+ lymphocytes were incubated in T-cell medium (TCM) until use consisting of RPMI-Glutamax (Invitrogen, Karlsruhe, Germany) supplemented with 10% heat inactivated human AB serum (PAN-Biotech, Aidenbach, Germany), 100 U/ml Penicillin/100 μg/ml Streptomycin (Cambrex, Cologne, Germany), 1 mM sodium pyruvate (CC Pro, Oberdorla, Germany), 20 μg/ml Gentamycin (Cambrex). 2.5 ng/ml IL-7 (PromoCell, Heidelberg, Germany) and 10 U/ml IL-2 (Novartis Pharma, Nirnberg, Germany) were also added to the TCM at this step.
Generation of pMHC/anti-CD28 coated beads, T-cell stimulations and readout was performed in a highly defined in vitro system using four different pMHC molecules per stimulation condition and 8 different pMHC molecules per readout condition.
The purified co-stimulatory mouse IgG2a anti human CD28 Ab 9.3 (Jung et al., 1987) was chemically biotinylated using Sulfo-N-hydroxysuccinimidobiotin as recommended by the manufacturer (Perbio, Bonn, Germany). Beads used were 5.6 μm diameter streptavidin coated polystyrene particles (Bangs Laboratories, Illinois, USA).
800.000 beads/200 μl were coated in 96-well plates in the presence of 4×12.5 ng different biotin-pMHC, washed and 600 ng biotin anti-CD28 were added subsequently in a volume of 200 μl. Stimulations were initiated in 96-well plates by co-incubating 1×10^6 CD8+ T cells with 2×10^5 washed coated beads in 200 μl TCM supplemented with 5 ng/ml IL-12 (PromoCell) for 3 days at 37° C. Half of the medium was then exchanged by fresh TCM supplemented with 80 U/ml IL-2 and incubating was continued for 4 days at 37° C. This stimulation cycle was performed for a total of three times. For the pMHC multimer readout using 8 different pMHC molecules per condition, a two-dimensional combinatorial coding approach was used as previously described (Andersen et al., 2012) with minor modifications encompassing coupling to 5 different fluorochromes.

Substance: 2 (ALHRPDVYL; listed as Homo sapiens) [compound 2]
- Peptide Exchange [1]: ″+++″ (≥50 = +++)
- Wells positive [%] [2]: ″+″ (<20% = +)

Substance: 114 (LIPEGPPQV; listed as Homo sapiens) [compound 114]
- Peptide Exchange [1]: ″+++″ (≥50 = +++)
- Wells positive [%] [2]: ″+″ (<20% = +)

Substance: 1 (AIPPSFASIFL; listed as Homo sapiens) [compound 1]
- Peptide Exchange [1]: ″+++″ (≥50 = +++)
- Wells positive [%] [2]: ″+++″ (50%-69% = +++)

Substance: 240 (ILARDILEI; listed as Homo sapiens) [compound 240]
- Peptide Exchange [1]: ″+++″ (≥50 = +++)
- Wells positive [%] [2]: ″+″ (<20% = +)

Substance: 49 (FLTDLFAQL; listed as Homo sapiens) [compound 49]
- Peptide Exchange [1]: ″++++″ (≥75% = ++++)
- Wells positive [%] [2]: ″++″ (20%-49% = ++)

Substance: 112 (KTLDVDATYEI; listed as Homo sapiens) [compound 112]
- Peptide Exchange [1]: ″+++″ (≥50 = +++)
- Wells positive [%] [2]: ″+″ (<20% = +)

Substance: 281 (NLLDDRGMTAL; listed as Homo sapiens) [compound 281]
- Peptide Exchange [1]: ″+++″ (≥50 = +++)
- Wells positive [%] [2]: ″+″ (<20% = +)

Substance: 102 (IQDRAVPSL; listed as Homo sapiens) [compound 102]
- Peptide Exchange [1]: ″++″ (≥20% = ++)
- Wells positive [%] [2]: ″+″ (<20% = +)

Substance: 322 (SLASIHVPL; listed as Homo sapiens) [compound 322]
- Peptide Exchange [1]: ″+++″ (≥50 = +++)
- Wells positive [%] [2]: ″+″ (<20% = +)

Substance: 192 (YIQEYLTLL; listed as Homo sapiens) [compound 192]
- Peptide Exchange [1]: ″+++″ (≥50 = +++)
- Wells positive [%] [2]: ″+″ (<20% = +)

Substance: 521 (YLYGQTTTYL; listed as Homo sapiens) [compound 521]
- wells (in vitro immunogenicity, positive wells) [2]: ++ (20%-49% = ++)

Substance: 69 (GLHQREIFL; listed as Homo sapiens) [compound 69]
- Peptide Exchange [1]: ″+++″ (≥50 = +++)
- Wells positive [%] [2]: ″+″ (<20% = +)

Substance: 282 (LLRDGIELV; listed as Homo sapiens) [compound 282]
- Peptide Exchange [1]: ″+++″ (≥50 = +++)
- Wells positive [%] [2]: ″++″ (20%-49% = ++)

Substance: 54 (FLYPFPLALF; listed as Homo sapiens) [compound 54]
- Peptide Exchange [1]: ″+++″ (≥50 = +++)
- Wells positive [%] [2]: ″+″ (<20% = +)

Substance: 5 (ALIFKIASA; listed as Homo sapiens) [compound 5]
- Peptide Exchange [1]: ″+++″ (≥50 = +++)
- Wells positive [%] [2]: ″+++″ (50%-69% = +++)

Substance: 380 (YLDRKLLTL; listed as Homo sapiens) [compound 380]
- Peptide Exchange [1]: ″+++″ (≥50 = +++)
- Wells positive [%] [2]: ″++++″ (> = 70% = ++++)

Substance: 323 (SLDLFNCEV; listed as Homo sapiens) [compound 323]
- Peptide Exchange [1]: ″++++″ (≥75% = ++++)
- Wells positive [%] [2]: ″+″ (<20% = +)

Substance: 427 (LLYDAVHIV; listed as Homo sapiens) [compound 427]
- wells (in vitro immunogenicity, positive wells) [2]: ++ (20%-49% = ++)

Substance: 154 (SLLAELHVLTV; listed as Homo sapiens) [compound 154]
- Peptide Exchange [1]: ″++++″ (≥75% = ++++)
- Wells positive [%] [2]: ″+″ (<20% = +)

Substance: 57 (GLSEISLRL; listed as Homo sapiens) [compound 57]
- Peptide Exchange [1]: ″++++″ (≥75% = ++++)
- Wells positive [%] [2]: ″+″ (<20% = +)

Substance: 101 (ILVVIEPLL; listed as Homo sapiens) [compound 101]
- Peptide Exchange [1]: ″++++″ (≥75% = ++++)
- Wells positive [%] [2]: ″+″ (<20% = +)

Substance: 100 (ILNNEVFAI; listed as Homo sapiens) [compound 100]
- Peptide Exchange [1]: ″+++″ (≥50 = +++)
- Wells positive [%] [2]: ″++″ (20%-49% = ++)

Substance: 307 (LLLTKPTEA; listed as Homo sapiens) [compound 307]
- Peptide Exchange [1]: ″+++″ (≥50 = +++)
- Wells positive [%] [2]: ″+″ (<20% = +)

Substance: 197 (YLQEVPILTL; listed as Homo sapiens) [compound 197]
- Peptide Exchange [1]: ″++++″ (≥75% = ++++)
- Wells positive [%] [2]: ″+″ (<20% = +)
